Where two headings read alike, the source gives them in different places.
Experiments:
[1] = test system: ARE gene family (AKR1B10, AKR1C1, AKR1C2, CYP1B1, FTH1P, FTL, G6PD, GCLM, NQO2, SLC7A11, TXNRD1, UGT1A1, UGT1A9, YWHAZ, CD36, CYP1A1, GCLC, HMOX1, NQO1, PSME2 …); settings: for AHR expression / AKR1B10 expression / AKR1C1 expression / AKR1C2 expression / CYP1A1 expression / CYP1B1 expression / FTH1P expression / FTL expression / GCLC expression / GCLM expression / HMOX1 expression / NQO1 expression / NQO2 expression / SLC7A11 expression / TXNRD1 expression / UGT1A1 expression / UGT1A9 expression: compared to the control
[2] = test system: EPISKIN model; assay: Sensitizing power: sensitizing potential retested at successive dilutions in the EPISKIN model

O=CC=O [Glyoxal]
AKR1C1 NUMBER OF GENES grade ([1]; 10%): 0 (if this expression is lower, the grade is 0) | AKR1C2 NUMBER OF GENES grade ([1]; 10%): 0 (if this expression is lower, the grade is 0) | ARE >1.3 (number of genes) ([1]; 10%): 3 | CD36 expression compared to control ([1]; 10%): 1.3 | CD36 grade (NUMBER OF GENES) ([1]; 10%): 1 (If the expression is greater than 1.3 compared to the control, a grade of 11s given) | CYP1A1 NUMBER OF GENES grade ([1]; 10%): 0 (if this expression is lower, the grade is 0) | CYP1B1 NUMBER OF GENES grade ([1]; 10%): 0 (if this expression is lower, the grade is 0) | FTH1P NUMBER OF GENES grade ([1]; 10%): 0 (if this expression is lower, the grade is 0) | FTL NUMBER OF GENES grade ([1]; 10%): 0 (if this expression is lower, the grade is 0) | GCLC NUMBER OF GENES grade ([1]; 10%): 0 (if this expression is lower, the grade is 0) | GCLM NUMBER OF GENES grade ([1]; 10%): 1 (If the expression is greater than 1.3 compared to the control, a grade of 11s given) | HMOX1 NUMBER OF GENES grade ([1]; 10%): 0 (if this expression is lower, the grade is 0) | NQO1 NUMBER OF GENES grade ([1]; 10%): 0 (if this expression is lower, the grade is 0) | NQO2 NUMBER OF GENES grade ([1]; 10%): 0 (if this expression is lower, the grade is 0) | S100A8 expression compared to control ([1]; 10%): 0.9 | S100A8 grade (NUMBER OF GENES) ([1]; 10%): 0 (if this expression is lower, the grade is 0) | SLC7A11 NUMBER OF GENES grade ([1]; 10%): 1 (If the expression is greater than 1.3 compared to the control, a grade of 11s given) | TOTAL ARE (number of genes) ([1]; 10%): 3 | TXNRD1 NUMBER OF GENES grade ([1]; 10%): 1 (If the expression is greater than 1.3 compared to the control, a grade of 11s given) | UGT1A1 NUMBER OF GENES grade ([1]; 10%): 0 (if this expression is lower, the grade is 0) | UGT1A9 NUMBER OF GENES grade ([1]; 10%): 0 (if this expression is lower, the grade is 0) | AHR expression ([1]; 10%): 1.0 | AKR1B10 expression ([1]; 10%): 0.7 | AKR1C1 expression ([1]; 10%): 1.0 | AKR1C2 expression ([1]; 10%): 1.2 | CYP1A1 expression ([1]; 10%): 0.0 | CYP1B1 expression ([1]; 10%): 0.8 | FTH1P expression ([1]; 10%): 1.1 | FTL expression ([1]; 10%): 1.1 | GCLC expression ([1]; 10%): 1.1 | GCLM expression ([1]; 10%): 1.7 | HMOX1 expression ([1]; 10%): 1.0 | NQO1 expression ([1]; 10%): 1.2 | NQO2 expression ([1]; 10%): 1.0 | SLC7A11 expression ([1]; 10%): 1.9 | TXNRD1 expression ([1]; 10%): 1.3 | UGT1A1 expression ([1]; 10%): 1.0 | UGT1A9 expression ([1]; 10%): 0.2 | AHR NUMBER OF GENES grade ([1]; 50%): 0 (if this expression is lower, the grade is 0) | AKR1B10 NUMBER OF GENES grade ([1]; 50%): 0 (if this expression is lower, the grade is 0) | AKR1C1 NUMBER OF GENES grade ([1]; 50%): 0 (if this expression is lower, the grade is 0) | AKR1C2 NUMBER OF GENES grade ([1]; 50%): 0 (if this expression is lower, the grade is 0) | ARE >1.3 (number of genes) ([1]; 50%): 6 | CD36 expression compared to control ([1]; 50%): 1.1 | CD36 grade (NUMBER OF GENES) ([1]; 50%): 0 (if this expression is lower, the grade is 0) | CYP1A1 NUMBER OF GENES grade ([1]; 50%): 0 (if this expression is lower, the grade is 0) | CYP1B1 NUMBER OF GENES grade ([1]; 50%): 1 (If the expression is greater than 1.3 compared to the control, a grade of 11s given) | FTH1P NUMBER OF GENES grade ([1]; 50%): 0 (if this expression is lower, the grade is 0) | FTL NUMBER OF GENES grade ([1]; 50%): 0 (if this expression is lower, the grade is 0) | GCLC NUMBER OF GENES grade ([1]; 50%): 0 (if this expression is lower, the grade is 0) | GCLM NUMBER OF GENES grade ([1]; 50%): 1 (If the expression is greater than 1.3 compared to the control, a grade of 11s given) | HMOX1 NUMBER OF GENES grade ([1]; 50%): 1 (If the expression is greater than 1.3 compared to the control, a grade of 11s given) | NQO1 NUMBER OF GENES grade ([1]; 50%): 0 (if this expression is lower, the grade is 0) | NQO2 NUMBER OF GENES grade ([1]; 50%): 0 (if this expression is lower, the grade is 0) | S100A8 expression compared to control ([1]; 50%): 0.9 | S100A8 grade (NUMBER OF GENES) ([1]; 50%): 0 (if this expression is lower, the grade is 0) | SLC7A11 NUMBER OF GENES grade ([1]; 50%): 0 (if this expression is lower, the grade is 0) | TOTAL ARE (number of genes) ([1]; 50%): 6 | TXNRD1 NUMBER OF GENES grade ([1]; 50%): 1 (If the expression is greater than 1.3 compared to the control, a grade of 11s given) | UGT1A1 NUMBER OF GENES grade ([1]; 50%): 1 (If the expression is greater than 1.3 compared to the control, a grade of 11s given) | UGT1A9 NUMBER OF GENES grade ([1]; 50%): 1 (If the expression is greater than 1.3 compared to the control, a grade of 11s given) | AHR expression ([1]; 50%): 0.9 | AKR1B10 expression ([1]; 50%): 0.8 | AKR1C1 expression ([1]; 50%): 0.8 | AKR1C2 expression ([1]; 50%): 0.9 | CYP1A1 expression ([1]; 50%): 1.1 | CYP1B1 expression ([1]; 50%): 3.3 | FTH1P expression ([1]; 50%): 0.9 | FTL expression ([1]; 50%): 0.9 | GCLC expression ([1]; 50%): 0.9 | GCLM expression ([1]; 50%): 1.5 | HMOX1 expression ([1]; 50%): 1.4 | NQO1 expression ([1]; 50%): 0.9 | NQO2 expression ([1]; 50%): 0.9 | SLC7A11 expression ([1]; 50%): 1.0 | TXNRD1 expression ([1]; 50%): 1.4 | UGT1A1 expression ([1]; 50%): 1.4 | UGT1A9 expression ([1]; 50%): 1.3 | sensitizing potential (conclusion) ([2]; 0.1%): Sensitizing | sensitizing potential (conclusion) ([2]; 1%): Sensitizing | sensitizing potential (conclusion) ([2]; 10%): Sensitizing | sensitizing potential (conclusion) ([2]; 50%): Sensitizing | sensitizing power (class) ([2]; from successive dilutions): MODERATE
